Test system: L. acidophilus NCFM
Assay: RNA-seq transcriptional analysis of L. acidophilus NCFM growing on plant glycosides
Format: cell-based, Lactobacillus acidophilus
[1] = LBA1955 Transcription regulator family protein, COG K
[2] = gene LBA0046 (Hypothetical protein)
[3] = gene LBA0149 (Putative nucleotide-binding protein)
[4] = gene LBA0263 (Hypothetical protein)
[5] = gene LBA0282 (Hypothetical protein)
[6] = gene LBA0327 (Replication protein)
[7] = gene LBA0328 (Hypothetical protein)
[8] = gene LBA0330 (Hypothetical protein)
[9] = gene LBA0457 (Hypothetical protein)
[10] = gene LBA0485 (Hypothetical protein)
[11] = gene LBA0486 (Hypothetical protein)
[12] = gene LBA0487 (Hypothetical protein.)
[13] = gene LBA0492 (Hypothetical protein)
[14] = gene LBA0541 (Cadmium-transporting ATPase)
[15] = gene LBA0542 (Putative heavy-metal-transporting alpase)
[16] = gene LBA0543 (Hypothetical protein)
[17] = gene LBA0544 (Transcriptional regulator)
[18] = gene LBA0555 (Myosin-crossreactive antigen)
[19] = gene LBA0564 (HAD family hydrolase)
[20] = gene LBA0574 (ABC multi drug exporter)
[21] = gene LBA0575 (ABC multi drug exporter)
[22] = gene LBA0604 (Immunity protein)
[23] = gene LBA0605 (Putative hydrolase)
[24] = gene LBA0608 (Hypothetical protein)
[25] = gene LBA0631 (Hypothetical protein)
[26] = gene LBA0649 (Myosin-crossreactive antigen)
[27] = gene LBA0728 (Hypothetical protein LBA0728)
[28] = gene LBA1025 (Aldo/keto reductase family oxidoreductase)
[29] = gene LBA1026 (Aldo/keto reduetase family oxidoreductase)
[30] = gene LBA1206 (Hypothetical protein)
[31] = gene LBA1401 (Peroxidase (Npx))
[32] = gene LBA1435 (Hypothetical protein)
[33] = gene LBA1455 (Putative surface layer protein)
[34] = gene LBA1656 (Hypothetical protein)
[35] = gene LBA1675 (Hypothetical protein)
[36] = gene LBA1676 (ATP-dependent helicase)
[37] = gene LBA1683 (Putative magnesium-transporting atpase)
[38] = gene LBA1704 (N-Acetylmuramic acid-6-phosphate etherase)
[39] = gene LBA1740 (Hypothetical protein)
[40] = gene LBA1752 (Hypothetical protein)
[41] = gene LBA1769 (Hypothetical protein)
[42] = gene LBA1793 (Hypothetical protein)
[43] = gene LBA1869 (Beta-phosphoglueomutase)
[44] = gene LBA1895 (Hypothetical protein)

SMILES: OC[C@H]1O[C@@H](O[C@H]2[C@H](O)[C@@H](O)[C@@H](O)O[C@@H]2CO)[C@H](O)[C@@H](O)[C@H]1O [Lac]
- Log2 differential normalized TPM ratio compared to glucose (LBA1878 Glycerol kinase, COG C): 0
- Transcripts per million (rpm) (LBA1878 Glycerol kinase, COG C): 8.9 rpm
- Log2 differential normalized TPM ratio compared to glucose [1]: −0.4
- Transcripts per million (rpm) [1]: 403.9 rpm
- Log2 differential normalized TPM ratio compared to glucose [2]: 0.7
- Transcripts per million (rpm) [2]: 506.3 rpm
- Log2 differential normalized TPM ratio compared to glucose [3]: 0.8
- Transcripts per million (rpm) [3]: 850.2 rpm
- Log2 differential normalized TPM ratio compared to glucose [4]: 0.7
- Transcripts per million (rpm) [4]: 27 rpm
- Log2 differential normalized TPM ratio compared to glucose [5]: 0.6
- Transcripts per million (rpm) [5]: 32.7 rpm
- Log2 differential normalized TPM ratio compared to glucose [6]: 0.2
- Transcripts per million (rpm) [6]: 9.5 rpm
- Log2 differential normalized TPM ratio compared to glucose [7]: −0.1
- Transcripts per million (rpm) [7]: 13.2 rpm
- Log2 differential normalized TPM ratio compared to glucose [8]: 0.3
- Transcripts per million (rpm) [8]: 26.6 rpm
- Log2 differential normalized TPM ratio compared to glucose [9]: 1
- Transcripts per million (rpm) [9]: 977.4 rpm
- Log2 differential normalized TPM ratio compared to glucose [10]: 2.4
- Transcripts per million (rpm) [10]: 1078 rpm
- Log2 differential normalized TPM ratio compared to glucose [11]: 2.8
- Transcripts per million (rpm) [11]: 1593.4 rpm
- Log2 differential normalized TPM ratio compared to glucose [12]: 1.3
- Transcripts per million (rpm) [12]: 82.6 rpm
- Log2 differential normalized TPM ratio compared to glucose [13]: 2.4
- Transcripts per million (rpm) [13]: 44.2 rpm
- Log2 differential normalized TPM ratio compared to glucose [14]: 2
- Transcripts per million (rpm) [14]: 167.4 rpm
- Log2 differential normalized TPM ratio compared to glucose [15]: 2.2
- Transcripts per million (rpm) [15]: 409.6 rpm
- Log2 differential normalized TPM ratio compared to glucose [16]: 2.3
- Transcripts per million (rpm) [16]: 345.9 rpm
- Log2 differential normalized TPM ratio compared to glucose [17]: 2
- Transcripts per million (rpm) [17]: 416.6 rpm
- Log2 differential normalized TPM ratio compared to glucose [18]: 1.9
- Transcripts per million (rpm) [18]: 165.8 rpm
- Log2 differential normalized TPM ratio compared to glucose [19]: 0.5
- Transcripts per million (rpm) [19]: 1.5 rpm
- Log2 differential normalized TPM ratio compared to glucose [20]: 0.3
- Transcripts per million (rpm) [20]: 109.5 rpm
- Log2 differential normalized TPM ratio compared to glucose [21]: 0.2
- Transcripts per million (rpm) [21]: 93 rpm
- Log2 differential normalized TPM ratio compared to glucose [22]: 0.5
- Transcripts per million (rpm) [22]: 20.8 rpm
- Log2 differential normalized TPM ratio compared to glucose [23]: 1
- Transcripts per million (rpm) [23]: 5.5 rpm
- Log2 differential normalized TPM ratio compared to glucose [24]: 1.1
- Transcripts per million (rpm) [24]: 75.1 rpm
- Log2 differential normalized TPM ratio compared to glucose [25]: 3.1
- Transcripts per million (rpm) [25]: 10677.4 rpm
- Log2 differential normalized TPM ratio compared to glucose [26]: 0.7
- Transcripts per million (rpm) [26]: 65.3 rpm
- Log2 differential normalized TPM ratio compared to glucose [27]: 1.8
- Transcripts per million (rpm) [27]: 8.5 rpm
- Transcripts per million (rpm) (gene LBA0802 (Hypothetical protein)): 40.6 rpm
- Log2 differential normalized TPM ratio compared to glucose (gene LBA0861 (Polyferredoxin)): 0.5
- Transcripts per million (rpm) (gene LBA0861 (Polyferredoxin)): 272.1 rpm
- Log2 differential normalized TPM ratio compared to glucose (gene LBA1023 (Oxidoreductase)): 0.3
- Transcripts per million (rpm) (gene LBA1023 (Oxidoreductase)): 213.6 rpm
- Log2 differential normalized TPM ratio compared to glucose [28]: 0
- Transcripts per million (rpm) [28]: 31.7 rpm
- Log2 differential normalized TPM ratio compared to glucose [29]: 0.4
- Transcripts per million (rpm) [29]: 43.3 rpm
- Log2 differential normalized TPM ratio compared to glucose (gene LBA1027 (Oxidoreductase)): 1.5
- Transcripts per million (rpm) (gene LBA1027 (Oxidoreductase)): 1733.7 rpm
- Log2 differential normalized TPM ratio compared to glucose [30]: 1.2
- Transcripts per million (rpm) [30]: 302.8 rpm
- Log2 differential normalized TPM ratio compared to glucose [31]: 2.1
- Transcripts per million (rpm) [31]: 294.6 rpm
- Log2 differential normalized TPM ratio compared to glucose [32]: 3.7
- Transcripts per million (rpm) [32]: 57.4 rpm
- Log2 differential normalized TPM ratio compared to glucose [33]: 1.6
- Transcripts per million (rpm) [33]: 53.4 rpm
- Log2 differential normalized TPM ratio compared to glucose (gene LBA1469 (UDP-glucose 4-epimerase)): 5
- Log2 differential normalized TPM ratio compared to glucose [34]: 0.6
- Transcripts per million (rpm) [34]: 30.6 rpm
- Log2 differential normalized TPM ratio compared to glucose [35]: 1.4
- Transcripts per million (rpm) [35]: 1127.6 rpm
- Log2 differential normalized TPM ratio compared to glucose [36]: 1.2
- Transcripts per million (rpm) [36]: 734.7 rpm
- Log2 differential normalized TPM ratio compared to glucose [37]: −0.2
- Transcripts per million (rpm) [37]: 14 rpm
- Log2 differential normalized TPM ratio compared to glucose [38]: 0.6
- Transcripts per million (rpm) [38]: 10.7 rpm
- Log2 differential normalized TPM ratio compared to glucose [39]: 0.8
- Transcripts per million (rpm) [39]: 31.5 rpm
- Log2 differential normalized TPM ratio compared to glucose [40]: 0.8
- Transcripts per million (rpm) [40]: 15.3 rpm
- Log2 differential normalized TPM ratio compared to glucose [41]: 1.9
- Transcripts per million (rpm) [41]: 5636.3 rpm
- Log2 differential normalized TPM ratio compared to glucose [42]: 2.8
- Transcripts per million (rpm) [42]: 117.6 rpm
- Log2 differential normalized TPM ratio compared to glucose (gene LBA1796 (ABC exporter)): 2.5
- Transcripts per million (rpm) (gene LBA1796 (ABC exporter)): 52.4 rpm
- Log2 differential normalized TPM ratio compared to glucose [43]: 2.4
- Transcripts per million (rpm) [43]: 43.9 rpm
- Log2 differential normalized TPM ratio compared to glucose [44]: 0.2
- Transcripts per million (rpm) [44]: 31.9 rpm
